Measured values published in patent publication US9205069B2, “Inhibitors of anaphase promoting complex activity” (President and Fellows of Harvard College, priority 2009, dated 2015).

Columns and labels:
[1] = system: cyclin B1 degradation and Cdc27 phosphorylation; test: mitotic arrest in Xenopus extract after MPF addition (Western blot); assay type: biochemical; details: 200 μM, interphase extract plus MPF
APC-Cdc20 = test: in vitro ubiquitination assay with APC immunopurified from mitotic extract; assay type: biochemical, Xenopus; details: 200 μM, added into ubiquitination reaction
From the text: APC was immunoprecipitated from mitotic extract and tested in an in vitro ubiquitination assay.

APC-Cdh1 = test: in vitro ubiquitination assay with interphase APC activated by recombinant Cdh1; assay type: biochemical, Xenopus; details: 200 μM, added into ubiquitination reaction
From the text: APC was then immunoprecipitated and tested in an in vitro ubiquitination assay.

[2] = system: interaction between APC and IR peptide; test: APC recruitment from interphase extract by IR peptide resin; assay type: binding, Xenopus; details: 200 μM
Method: Top panel: Iodoacetyl resin was coupled with cysteine, a 21aa C-terminal peptide of Cdh1 or a 19aa peptide missing the C-terminal IR tail. The resin was incubated with interphase extract and the amount of Cdc27 bound on resin was analyzed.

Xenopus APC = test: 3H-TAME binding to APC in interphase extract (Cdc27 immunoprecipitation, scintillation counting); details: 200 nM 3H TAME
Method: Interphase extract was subjected to three rounds of immunoprecipitation with Cdc27 antibody. […] The specific counts associated with the beads were determined by scintillation counting.
(§1) The specific counts associated with the beads were determined by scintillation counting.
as §1
In parallel, the amount of immunoprecipitated Cdc27 was determined by immunoblot.

human APC = target: T1, human APC (Homo sapiens, UniProt P30260+Q13042+Q9UJX2+Q9UJX3); test: 3H-TAME binding to APC in asynchronous HeLa cell lysate
T1 construct: endogenous in cells; host or cells: asynchronous HeLa cells (lysate)
From the text: The same experiment was done as described in 3C using asynchronous Hela cell lysate.

[3] = system: APC-dependent proteolysis; test: cyclin B-luciferase degradation in mitotic Xenopus egg extract (luciferase assay); details: derivatives tested at 200 μM
Method: Samples were collected at 60 minutes and the remaining reporter level was measured by luminescence. Interphase extract was used as a negative control.

[4] = system: proteasomal degradation of ubiquitinated cyclin B1; test: degradation of pre-ubiquitinated 35S-cyclin B1 in interphase extract; assay type: biochemical, Xenopus; details: TAME 200 μM
Method: At indicated time points, all protein was precipitated and the level of radioactivity in supernatant was measured by scintillation counting. MG262 was used as a positive control.
A purified MPF complex containing 35S-labeled cyclin B1 was ubiquitinated by APC in a reconstituted ubiquitination system, and then added to interphase Xenopus extract in the presence or absence of inhibitors.

Row | APC ligase activity, compound added directly to reconstituted ubiquitination assay (APC-Cdc20) | competition with specific binding of 3H-TAME to Xenopus APC (Xenopus APC) | competition with specific 3H-TAME binding to human APC (human APC) | activity of TAME derivatives in luciferase assay [3] | Structure (SMILES) | cyclin B1 and Cdc27 phosphorylation after MPF addition [1] | APC-Cdh1 activity, compound added directly to reconstituted assay (APC-Cdh1) | APC recruitment by IR peptide resin [2] | degradation of pre-ubiquitinated cyclin B1 [4]
1 | did not inhibit APC | did not | did not | lowest activity | COC(=O)[C@H](CCCNC(=N)N)NC(C)=O [AAME, acetyl-L-arginine methylester] | degraded by 30 min | did not inhibit APC | no effect | 
2 |  |  |  |  | CC(C)C[C@H](NC(=O)[C@H](CC(C)C)NC(=O)[C@H](CC(C)C)NC(=O)OCc1ccccc1)B(O)O [MG262] |  |  |  | strongly inhibited
